# Laboratory results taken from patent US20190112578A1, “Derivation and Self-Renewal of Multipotent Cells and Uses Thereof” (IsletOne AB, priority 2016, published 2019).
# Key:
# Assay type in all cases: cell-based
# Isl1 cells = test: qRT-PCR of multipotency and differentiation markers in cells grown under various conditions; conditions: LN-521 under hypoxia versus LN-521 normoxia, plastic hypoxia
# [1] = test system: embryonic rat cardiac mesenchymal stem cells and rat bone marrow; test: Derivation of Isl1+ cells from rat mesenchymal stem cells on laminins in Wnt-medium (Isl1 immunostaining); conditions: on LN-521 in combination with hypoxia, two weeks in culture (5 passages)
# Excerpt: In order to further improve feeder free culturing systems where the origin and expansion of multipotent cells could be followed, the inventors synthesized a plasmid construct comprising parts of the Isl1-promotor region linked to the fluorescent marker green fluorescent protein (GFP). The plasmid was introduced into the cells by means of electroporation. Mesenchymal cells (i) derived from rat embryonic hearts, (ii) obtained from rat bone marrow, (iii) obtained from the bone marrow of young healthy donors, (iv) obtained from human cord blood and other types of perinatal tissue, (v) isolated from human amniotic sources, (v) isolated from human adult cardiac tissue were labeled with the Isl1 gene construct concomitant to the addition of Wnt-containing medium (100 ng/ml Wnt-3a and […] BIO). […] In culture the cells grew to confluency and were passaged every other day. At each passage, cells were analysed immunohistochemically for the expression of Isl1.
# For each experiment 10 pregnant sprague-dawley rats (gestational day, GD, 13 to 14) were used. The rats were euthanized in a CO2 chamber after which the whole embryos (approximately 10 embryos/rat) were removed through a low midline abdominal incision. From each embryo the heart was removed under microscope, minced into small pieces and rinsed repetitively with Hank's buffered salt solution (HBSS) (GibcoBRL, NY, USA). […]
# multipotent cells (MSCs) = test: Growth curves of multipotent cells (MSCs); conditions: LN-521 under hypoxia versus standard conditions (plastic under normoxia)
# Excerpt: Cells can be grown under hypoxic conditions using a variety of methods. Normally, hypoxic conditions for cell culturing are defined as culturing of cells in an atmosphere containing 5% or less of oxygen.
substance,measurement,setting,value
"LN-521: laminin heterotrimeric glycoprotein comprising an α5 chain, coated on cell culture plastic","Isl1, KDR and Nkx_2_5 mRNA transcripts",Isl1 cells,significantly higher
same,Troponin T2 transcripts,Isl1 cells,lower
same,cells expressing Isl1,[1],80±15%
same,proliferation (growth curve),multipotent cells (MSCs),significantly faster
